Assay results as given in US6136817A, “Opioid receptor antagonist compounds” (Astra AB, priority 1994, dated 2000).
Where a name gives a salt, the structure may show the parent alone.

Biological target: T1, δ opioid receptors (Mus musculus, UniProt P32300)
T1 construct: antagonism of the delta-selective agonist DPDPE
Test: opioid antagonism against receptor selective agonists (DAMGO, μ; Cl 977, κ; DPDPE, δ) in electrical stimulated guinea-pig ileum (GPI) and mouse vas deferens (MVD) preparations
Type: cell-based
Description: δ-Antagonism was assessed using the electrical stimulated guinea-pig ileum longitudinal muscle preparation (GPI; containing μ and κ opioid receptors) and mouse vas deferens preparation (MVD; containing μ, κ and δ opioid receptors) (H. Schmidhammer et al., J. Med. Chem., Vol. 32: 418-421, 1989; H Schnmidhammer et al., J. Med. Chem., Vol. 33:1200-1206,1990). The activity of the compound 1 of the Examples for inhibiting the suppression of contraction of the organs by three receptor selective agonists (DAMGO, μ; Cl 977, κ; DPDPE, δ) was measured.

T1 sequence (P32300 whole entry): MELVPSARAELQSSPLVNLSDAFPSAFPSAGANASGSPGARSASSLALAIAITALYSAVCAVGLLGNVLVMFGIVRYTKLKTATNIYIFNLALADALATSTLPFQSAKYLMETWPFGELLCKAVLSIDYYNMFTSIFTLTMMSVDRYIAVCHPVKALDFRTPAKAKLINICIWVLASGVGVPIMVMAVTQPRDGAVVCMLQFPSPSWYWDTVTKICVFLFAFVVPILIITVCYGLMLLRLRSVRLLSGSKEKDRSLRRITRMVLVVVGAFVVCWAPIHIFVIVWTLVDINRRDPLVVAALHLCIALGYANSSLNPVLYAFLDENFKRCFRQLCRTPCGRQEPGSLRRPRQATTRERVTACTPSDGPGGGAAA

For `CCO[C@@]12Cc3c([nH]c4ccccc34)[C@]3(C)Oc4c(O)ccc5c4[C@@]31CCN(CC1CC1)[C@@H]2C5` [compound 1, 17-(Cyclopropylmethyl)-6,7-dehydro-4,5α-epoxy-14-ethoxy-3-hydroxy-5-methyl-6,7-2',3'-indolomorphinan hydrochloride], the “opioid antagonism (inhibiting the suppression of contraction of the organs by receptor selective agonists)” value (GPI and MVD preparations, agonists DAMGO (μ), Cl 977 (κ), DPDPE (δ)) was “δ-selective opioid antagonism”, the κ/δ selectivity ratio (antagonism of Cl 977 (κ) vs DPDPE (δ)) was “very good” and the μ/δ selectivity ratio (antagonism of DAMGO (μ) vs DPDPE (δ)) was “very good”.
